Results from patent publication US8871767B2, “2-arylimidazo[1,2-B]pyridazine, 2-phenylimidazo[1,2-A]pyridine, and 2-phenylimidazo[1,2-A]pyrazine derivatives” (Hengrui (USA) Ltd., priority 2010, dated 2014).
Read-outs that look alike come from different tables or passages of the source.

Assays:
[1] = system: Hedgehog pathway activation on 10T1/2/Smo#3 cells (C3H10T1/2 cells transfected with human Smoothened receptor); experiment: Hedgehog pathway activation on 10T1/2/Smo#3 cells measured by ALP activity; format: cell-based; details: Mus musculus, C3H 10T1/2, 10T1/2/Smo#3 cells
Outline: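 Inhibition of alkaline phosphatase induction, read fluorometrically from 4-methylumbelliferyl phosphate conversion, gave IC50 values; CellTiter-Blue tracked viability in parallel. Cells were the human Smo-transfected 10T1/2/Smo#3 pool, stimulated by 10-20% hShh conditioned medium or the Smo agonist SAG (500 nM).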

[2] = system: Hedgehog pathway activation (GLi-luciferase reporter) in Shh Light II reporter cells; experiment: Hedgehog pathway activation on Shh Light II reporter cells measured by luciferase activity; format: cell-based; details: Mus musculus, Shh Light II
Outline: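 Shh Light II reporter cells carrying a hedgehog-responsive GLi-luciferase reporter were stimulated either with 500 nM SAG, a direct Smoothened agonist, or with conditioned media containing human Sonic Hedgehog (hShh). Test compounds were evaluated for blocking this pathway activation, quantified by luciferase activity. Cell viability was monitored in parallel with the Celltiter-Blue® assay.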

[3] = measured by ALP activity, read-out: ALP (IC50, inhibition of Hedgehog pathway activation)
[4] = hShh activation, read-out: Shh (IC50, inhibition of Hedgehog pathway activation)
[5] = hShh activation, ALP activity, read-out: 10T1/2/Smo#3 ALP activity (hShh Activation)
[6] = SAG activation (500 nM SAG), read-out: Shh Light II luciferase activity (SAG activation)
[7] = hShh activation, read-out: Shh Light II luciferase activity (hShh activation)

Row | Structure (SMILES) | IC50 [1, 3] [nM] | IC50 [2, 4] [nM] | IC50 [1, 5] [nM] | IC50 [2, 6] [nM] | IC50 [2, 7] [nM]
1 | CNS(=O)(=O)c1cc(-c2cn3nc(-c4cccnc4C(F)(F)F)ccc3n2)ccc1Cl [Example 698, 2-chloro-N-methyl-5-(6-(2-(trifluoromethyl)pyridin-3-yl)imidazo[1,2-b]pyridazin-2-yl)benzenesulfonamide] | > 10000 | 4250 |  |  | 
2 | CC(C)(C)NS(=O)(=O)c1cc(-c2cn3nc(-c4cccnc4C(F)(F)F)ccc3n2)ccc1Cl [Example 699, N-tert-butyl-2-chloro-5-(6-(2-(trifluoromethyl)pyridin-3-yl)imidazo[1,2-b]pyridazin-2-yl)benzenesulfonamide] | > 10000 | 2300 |  |  | 
3 | CN(C)S(=O)(=O)c1cc(-c2cn3nc(-c4cccnc4C(F)(F)F)ccc3n2)ccc1Cl [Example 700, 2-chloro-N,N-dimethyl-5-(6-(2-(trifluoromethyl)pyridin-3-yl)imidazo[1,2-b]pyridazin-2-yl)benzenesulfonamide] | > 10000 | 2500 |  |  | 
4 | CCNS(=O)(=O)c1cc(-c2cn3nc(-c4cccnc4C(F)(F)F)ccc3n2)ccc1Cl [Example 701, 2-chloro-N-ethyl-5-(6-(2-(trifluoromethyl)pyridin-3-yl)imidazo[1,2-b]pyridazin-2-yl)benzenesulfonamide] | > 10000 | 2620 |  |  | 
5 | O=S(=O)(NC1CC1)c1cc(-c2cn3nc(-c4cccnc4C(F)(F)F)ccc3n2)ccc1Cl [Example 702, 2-chloro-N-cyclopropyl-5-(6-(2-(trifluoromethyl)pyridin-3-yl)imidazo[1,2-b]pyridazin-2-yl)benzenesulfonamide] | > 10000 | 3980 |  |  | 
6 | CCN(CC)S(=O)(=O)c1cc(-c2cn3nc(-c4cccnc4C(F)(F)F)ccc3n2)ccc1Cl [Example 703, 2-chloro-N,N-diethyl-5-(6-(2-(trifluoromethyl)pyridin-3-yl)imidazo[1,2-b]pyridazin-2-yl)benzenesulfonamide] | > 10000 | 1600 |  |  | 
7 | Cc1ccc(-c2cn3nc(-c4ccc(C(N)=O)cc4C(F)(F)F)ccc3n2)cc1NC(=O)C(C)(C)C [compound 508] | 110 | 92 | < 300 | 300 to 3000 | < 300
8 | COC(=O)CCCCCCNC(=O)c1ccc(-c2ccc3nc(-c4ccc(C)c(NC(=O)C(C)(C)C)c4)cn3n2)c(C(F)(F)F)c1 [compound 509] | 213 | 158 | < 300 | 300 to 3000 | < 300
9 | Cc1ccc(-c2cn3nc(-c4ccc(/C(N)=N/O)cc4C(F)(F)F)ccc3n2)cc1NC(=O)C(C)(C)C [compound 511, N-(5-(6-(4-(N′-hydroxycarbamimidoyl)-2-(trifluoromethyl)phenyl)imidazo[1,2-b]pyridazin-2-yl)-2-methylphenyl)pivalamide] | 2 | 10 | < 300 | < 300 | < 300
10 | Cc1ccc(-c2cn3nc(-c4cccnc4C(F)(F)F)ccc3n2)cc1-c1cscn1 [compound 512] | 205 | 311 |  |  | 
11 | Cc1ccc(-c2cn3nc(-c4cccnc4C(F)(F)F)ccc3n2)cc1NC(=O)C1(C)CC1 [compound 518, 1-methyl-N-(2-methyl-5-(6-(2-(trifluoromethyl)pyridin-3-yl)imidazo[1,2-b]pyridazin-2-yl)phenyl)cyclopropanecarboxamide] | 71 | 16 | < 300 | < 300 | < 300
12 | CC(=O)c1ccc(F)c(-c2ccc3nc(-c4ccc(C)c(NC(=O)C(C)(C)C)c4)cn3n2)c1 [compound 529] | 116 | 197 | < 300 | 300 to 3000 | < 300
13 | Cc1ccc(-c2cn3nc(-c4ccc(NC(=O)CCCCC(=O)NO)cc4C(F)(F)F)ccc3n2)cc1NC(=O)C(C)(C)C [compound 531] | 1140 | 586 |  |  | 
14 | Cc1ccc(-c2cn3nc(-c4ccc(C(C)(C)O)cc4C(F)(F)F)ccc3n2)cc1NC(=O)C(C)(C)C [compound 533] | 449 | 301 |  |  | 
15 | Cc1ccc(-c2cn3nc(-c4ccc(S(N)(=O)=O)cc4C(F)(F)F)ccc3n2)cc1NC(=O)C(C)(C)C [compound 535] | 139 | 56 |  |  | 
16 | Cc1ccc(-c2cn3nc(-c4ccc(C(=O)O)cc4Cl)ccc3n2)cc1NC(=O)C(C)(C)C [compound 540] | 891 | 447 |  |  | 
17 | Cc1ccc(-c2cn3nc(-c4ccc(C(N)=O)cc4F)ccc3n2)cc1NC(=O)C(C)(C)C [compound 541] | 181 | 255 |  |  | 
18 | Cc1ccc(-c2cn3nc(N4CCC(C(N)=O)CC4)ccc3n2)cc1NC(=O)C(C)(C)C [compound 542] | 88 | 94 | < 300 | 300 to 3000 | < 300
19 | Cc1ccc(-c2cn3nc(-c4ccc(C(=N)N)cc4C(F)(F)F)ccc3n2)cc1NC(=O)C(C)(C)C [compound 543, N-(5-(6-(4-carbamimidoyl-2-(trifluoromethyl)phenyl)imidazo[1,2-b]pyridazin-2-yl)-2-methylphenyl)pivalamide] | 7 | 4 |  |  | 
20 | Cc1ccc(-c2cn3nc(N4CCC(C#N)CC4)ccc3n2)cc1NC(=O)C(C)(C)C [compound 544] | 462 | 224 |  |  | 
21 | Cc1ccc(-c2cn3nc(-c4ccc(C#N)cc4F)ccc3n2)cc1NC(=O)C(C)(C)C [compound 545] | 443 | 82 |  |  | 
22 | Cc1ccc(-c2cn3nc(-c4cccc(C=CC(=O)O)c4)ccc3n2)cc1NC(=O)C(C)(C)C [compound 554] | 1190 | 316 | 300 to 3000 | 3000 to 30000 | < 300
23 | COC(=O)CCCCCCC(=O)Nc1ccc(-c2ccc3nc(-c4ccc(C)c(NC(=O)C(C)(C)C)c4)cn3n2)cc1 [compound 556] | 737 | 395 |  |  | 
24 | Cc1ccc(-c2cn3nc(-c4cccnc4C(F)(F)F)ccc3n2)cc1NC(=O)CCCCCCC(=O)NOC1CCCCO1 (centres unmarked) [compound 557, N1-(2-methyl-5-(6-(2-(trifluoromethyl)pyridin-3-yl)imidazo[1,2-b]pyridazin-2-yl)phenyl)-N8-((tetrahydro-2H-pyran-2-yl)oxy)octanediamide] | 1080 | 140 |  |  | 
25 | Cc1ccc(-c2cn3nc(-c4ccc(C=CC(=O)NOC5CCCCO5)cc4)ccc3n2)cc1NC(=O)C(C)(C)C (centres unmarked) [compound 558] | 1060 | 391 |  |  | 
26 | Cc1ccc(-c2cn3nc(-c4cccc(C=CC(=O)NO)c4)ccc3n2)cc1NC(=O)C(C)(C)C [compound 559] | 604 | 322 |  |  | 

Continued, values first:

Row | IC50 [1, 3] [nM] | IC50 [2, 4] [nM] | IC50 [1, 5] [nM] | IC50 [2, 6] [nM] | IC50 [2, 7] [nM] | Structure (SMILES)
27 | 481 | 402 | 300 to 3000 | 3000 to 30000 | < 300 | Cc1ccc(-c2cn3nc(-c4ccc(C=CC(=O)NO)cc4)ccc3n2)cc1NC(=O)C(C)(C)C [compound 560]
28 | 756 | 376 |  |  |  | Cc1ccc(-c2cn3nc(-c4ccc(NC(=O)CCCCCCC(=O)NOC5CCCCO5)cc4)ccc3n2)cc1NC(=O)C(C)(C)C (centres unmarked) [compound 562]
29 | 60 | 20 |  |  |  | Cc1ccc(-c2cn3nc(-c4ccc(C#N)cc4Cl)ccc3n2)cc1NC(=O)C(C)(C)C [compound 564]
30 | 61 | 9 |  |  |  | Cc1ccc(-c2cn3nc(-c4cc(C#N)ccc4Cl)ccc3n2)cc1NC(=O)C(C)(C)C [compound 565]
31 | 371 | 285 |  |  |  | Cc1ccc(-c2cn3nc(N4CCC(C(N)=NO)CC4)ccc3n2)cc1NC(=O)C(C)(C)C [compound 566]
32 | 298 | 219 |  |  |  | Cc1ccc(-c2cn3nc(-c4ccc(C(N)=NO)cc4F)ccc3n2)cc1NC(=O)C(C)(C)C [compound 567]
33 | 99 | 100 |  |  |  | Cc1ccc(-c2cn3nc(-c4ccc(C(N)=NO)cc4Cl)ccc3n2)cc1NC(=O)C(C)(C)C [compound 568]
34 | 86 | 32 | < 300 | 300 to 3000 | < 300 | Cc1ccc(-c2cn3nc(-c4cc(C(N)=NO)ccc4Cl)ccc3n2)cc1NC(=O)C(C)(C)C [compound 569]
35 | 730 | 240 |  |  |  | CC(C)(C)C(=O)Nc1cc(-c2cn3nc(N4CCN(C(=N)N)CC4)ccc3n2)ccc1C(F)(F)F [compound 570]
36 | 554 | 129 |  |  |  | CC1CN(C(=N)N)CCN1c1ccc2nc(-c3ccc(C(F)(F)F)c(NC(=O)C(C)(C)C)c3)cn2n1 (centres unmarked) [compound 571]
37 | 1040 | 70 |  |  |  | COC(=O)C=Cc1ccc(Cl)c(-c2ccc3nc(-c4ccc(C)c(NC(=O)C(C)(C)C)c4)cn3n2)c1 [compound 573]
38 | 30 | 20 |  |  |  | Cc1ccc(-c2cn3nc(NC(=O)c4cccc(Br)c4)ccc3n2)cc1NC(=O)C(C)(C)C [compound 594]
39 | 94 | 18 |  |  |  | Cc1ccc(-c2cn3nc(-c4cc(C#N)ccc4C(F)(F)F)ccc3n2)cc1NC(=O)C(C)(C)C [compound 596]
40 | 285 | 39 | < 300 | < 300 | < 300 | Cc1ccc(-c2cn3nc(-c4ccc(C(=O)Nc5ccccc5N)cc4)ccc3n2)cc1NC(=O)C(C)(C)C [compound 597]
